According to US5202314A, “10-thioethyl-steroids” (Roussel Uclaf, priority 1991, dated 1993):
pIC50: −log10 of the molar value.

Molecular target: T1, aromatase (Homo sapiens, UniProt P11511)
T1 construct: The supernatant was then subjected to an ultracentrifugation stage (90 minutes, 105,000 g) to obtain the microsomal regulus; from tissue; host or cells: human placenta, microsomal fraction
T1 sequence (P11511 1-503): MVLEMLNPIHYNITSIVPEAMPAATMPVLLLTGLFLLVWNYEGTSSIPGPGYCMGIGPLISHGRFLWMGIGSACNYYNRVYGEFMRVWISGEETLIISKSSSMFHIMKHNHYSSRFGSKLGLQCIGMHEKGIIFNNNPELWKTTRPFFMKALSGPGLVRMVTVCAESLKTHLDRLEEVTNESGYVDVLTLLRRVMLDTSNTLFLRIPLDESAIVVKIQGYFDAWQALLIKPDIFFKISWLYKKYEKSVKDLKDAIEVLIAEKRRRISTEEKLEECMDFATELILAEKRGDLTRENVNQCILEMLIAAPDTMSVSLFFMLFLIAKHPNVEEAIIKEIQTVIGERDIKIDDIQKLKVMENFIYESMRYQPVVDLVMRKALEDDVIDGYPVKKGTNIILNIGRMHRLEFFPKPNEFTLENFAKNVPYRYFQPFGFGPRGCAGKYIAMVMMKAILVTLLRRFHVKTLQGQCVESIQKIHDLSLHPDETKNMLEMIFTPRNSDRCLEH
Assay: Inhibition of aromatase in human placental microsomes (tritiated water release from 1β-2β-3H-Androstenedione)
Format: biochemical
Conditions: 25 micrograms of proteins per test, substrate Androstenedione 500 nM, NADPH, 37° C., 10 minutes, read-out: IC50 (concentration of inhibitor necessary to decrease by 50% the enzymatic activity)
Description: Inhibition dependent on the concentration (measurement of IC50 =concentration of inhibitor necessary to reduce the enzymatic activity by 50%). Human placentas were used which were washed one hour at most after birth, perfused with physiological serum (5 liters) via the umbilical vein and then deep-frozen at -40° C.
(1) Obtaining the placental microsomes
The placentas were thawed at 4° C. and then homogenized (1:3) in a phosphate buffer 10 mM, pH=7.0; containing 100 millimoles of potassium chloride (KCl), 10 millimoles of dithiothreitol (DTT), 10 millimoles of ethylenediaminetetraacetic acid (EDTA), 40 millimoles of nicotinamide and 250 millimoles of sucrose. […]
The supernatant was then subjected to an ultracentrifugation stage (90 minutes, 105,000 g) to obtain the microsomal regulus. […] The protein concentration of the microsomal suspension was determined by the BRADFORD method BRADFORD M., Anal. Biochem., Vol. 72, (1976), p. […]
After centrifugation, 100 microliters of supernatant were taken from each tube and counted in the presence of a scintillating liquid. […] The inhibition obtained for each concentration of each inhibitor product of the invention was calculated as a percentage of the controls (arbitrary 100% , obtained in absence of any inhibitor). […]

CSCC[C@]12CCC(=O)C=C1[C@H](O)C[C@H]1[C@@H]3CCC(=O)[C@@]3(C)C[C@H]3O[C@]312 [Example 2, 9α, 11α-epoxy-10β-[2-methylthio-ethyl]-Δ^4-estrene-6β-ol-3,17-dione]
pIC50: 6.74
